Measured values from patent US11420958B2, “Aryl and heteroaryl substituted indole compounds” (BRISTOL-MYERS SQUIBB COMPANY, priority 2017, dated 2022).

How the values were obtained:
Assay type in all cases: cell-based
human TLR7 = human TLR7 (Homo sapiens (Human), UniProt Q9NYK1); experiment: TLR7 inhibition reporter assay (HEK-Blue, SEAP); settings: HEK-Blue cells overexpressing human TLR7, gardiquimod 7.5 μM stimulation
Method in brief: (§1)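 Percent inhibition of agonist-induced SEAP secretion was scored against DMSO-only and reference-inhibitor controls. Stimulation lasted 22 h at 37 °C following 30 min compound pre-exposure (0.05 nM–50 μM); ligands were gardiquimod 7.5 μM, R848 15.9 μM and ODN2006 5 nM for TLR7, 8 and 9.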

human TLR8 = human TLR8 (Homo sapiens (Human), UniProt Q9NR97); experiment: TLR8 inhibition reporter assay (HEK-Blue, SEAP); settings: HEK-Blue cells overexpressing human TLR8, R848 15.9 μM stimulation
Sequence of human TLR8 (Q9NR97 27-1041): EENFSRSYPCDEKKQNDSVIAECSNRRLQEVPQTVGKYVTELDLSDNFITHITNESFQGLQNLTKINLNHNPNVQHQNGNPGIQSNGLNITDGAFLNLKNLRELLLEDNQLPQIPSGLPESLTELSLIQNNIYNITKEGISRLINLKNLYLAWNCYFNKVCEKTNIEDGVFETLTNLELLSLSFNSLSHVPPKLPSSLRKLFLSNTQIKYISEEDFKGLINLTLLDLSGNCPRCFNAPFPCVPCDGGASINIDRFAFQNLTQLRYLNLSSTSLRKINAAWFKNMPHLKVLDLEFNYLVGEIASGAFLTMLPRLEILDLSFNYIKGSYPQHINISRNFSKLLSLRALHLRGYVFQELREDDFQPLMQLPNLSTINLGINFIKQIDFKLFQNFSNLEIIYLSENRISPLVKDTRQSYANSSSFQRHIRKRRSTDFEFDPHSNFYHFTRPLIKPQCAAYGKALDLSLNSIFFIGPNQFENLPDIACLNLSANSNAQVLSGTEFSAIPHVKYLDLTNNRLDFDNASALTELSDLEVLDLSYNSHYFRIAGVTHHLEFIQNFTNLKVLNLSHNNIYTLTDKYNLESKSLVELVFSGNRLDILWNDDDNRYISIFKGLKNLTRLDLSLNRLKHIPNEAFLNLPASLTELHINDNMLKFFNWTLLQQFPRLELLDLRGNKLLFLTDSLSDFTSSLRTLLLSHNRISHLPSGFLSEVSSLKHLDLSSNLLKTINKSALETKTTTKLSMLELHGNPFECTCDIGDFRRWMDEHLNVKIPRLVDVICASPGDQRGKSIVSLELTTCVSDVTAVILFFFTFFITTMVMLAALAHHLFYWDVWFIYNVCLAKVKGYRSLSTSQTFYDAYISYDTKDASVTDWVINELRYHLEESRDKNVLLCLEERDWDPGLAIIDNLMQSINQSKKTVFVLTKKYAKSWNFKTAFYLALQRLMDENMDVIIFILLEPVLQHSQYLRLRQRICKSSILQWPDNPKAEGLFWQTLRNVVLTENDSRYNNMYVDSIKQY
Method in brief: as §1

human TLR9 = human TLR9 (Homo sapiens (Human), UniProt Q9NR96); experiment: TLR9 inhibition reporter assay (HEK-Blue, SEAP); settings: HEK-Blue cells overexpressing human TLR9, ODN2006 5 nM stimulation
Sequence of human TLR9 (Q9NR96 26-1032): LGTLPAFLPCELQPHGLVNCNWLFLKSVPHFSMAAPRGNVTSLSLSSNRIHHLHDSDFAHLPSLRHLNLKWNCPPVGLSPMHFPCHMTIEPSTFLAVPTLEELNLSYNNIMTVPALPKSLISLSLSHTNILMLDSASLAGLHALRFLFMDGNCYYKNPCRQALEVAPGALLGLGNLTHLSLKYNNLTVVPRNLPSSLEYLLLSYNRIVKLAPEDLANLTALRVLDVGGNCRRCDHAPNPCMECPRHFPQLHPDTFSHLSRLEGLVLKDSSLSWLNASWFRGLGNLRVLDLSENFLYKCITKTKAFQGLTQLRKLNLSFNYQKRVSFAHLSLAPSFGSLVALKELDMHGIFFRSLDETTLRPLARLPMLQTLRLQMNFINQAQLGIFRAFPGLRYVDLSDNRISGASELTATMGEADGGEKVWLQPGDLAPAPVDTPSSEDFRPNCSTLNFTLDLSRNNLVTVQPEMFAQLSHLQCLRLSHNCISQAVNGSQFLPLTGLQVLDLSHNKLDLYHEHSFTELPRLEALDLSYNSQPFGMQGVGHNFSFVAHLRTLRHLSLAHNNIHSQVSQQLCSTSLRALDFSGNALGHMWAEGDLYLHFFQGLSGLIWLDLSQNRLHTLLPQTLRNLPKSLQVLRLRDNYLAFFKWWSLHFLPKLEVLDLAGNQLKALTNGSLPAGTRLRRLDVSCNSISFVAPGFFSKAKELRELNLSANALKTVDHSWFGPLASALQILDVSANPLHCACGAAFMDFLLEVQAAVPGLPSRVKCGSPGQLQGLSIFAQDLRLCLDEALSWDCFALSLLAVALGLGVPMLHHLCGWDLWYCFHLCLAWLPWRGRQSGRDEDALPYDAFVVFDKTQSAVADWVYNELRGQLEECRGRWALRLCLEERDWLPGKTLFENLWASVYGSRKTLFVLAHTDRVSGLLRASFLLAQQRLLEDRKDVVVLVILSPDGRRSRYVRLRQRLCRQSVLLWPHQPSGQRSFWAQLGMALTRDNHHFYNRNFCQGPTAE
Method in brief: as §1

Sequence of human TLR7 (Q9NYK1 27-1049): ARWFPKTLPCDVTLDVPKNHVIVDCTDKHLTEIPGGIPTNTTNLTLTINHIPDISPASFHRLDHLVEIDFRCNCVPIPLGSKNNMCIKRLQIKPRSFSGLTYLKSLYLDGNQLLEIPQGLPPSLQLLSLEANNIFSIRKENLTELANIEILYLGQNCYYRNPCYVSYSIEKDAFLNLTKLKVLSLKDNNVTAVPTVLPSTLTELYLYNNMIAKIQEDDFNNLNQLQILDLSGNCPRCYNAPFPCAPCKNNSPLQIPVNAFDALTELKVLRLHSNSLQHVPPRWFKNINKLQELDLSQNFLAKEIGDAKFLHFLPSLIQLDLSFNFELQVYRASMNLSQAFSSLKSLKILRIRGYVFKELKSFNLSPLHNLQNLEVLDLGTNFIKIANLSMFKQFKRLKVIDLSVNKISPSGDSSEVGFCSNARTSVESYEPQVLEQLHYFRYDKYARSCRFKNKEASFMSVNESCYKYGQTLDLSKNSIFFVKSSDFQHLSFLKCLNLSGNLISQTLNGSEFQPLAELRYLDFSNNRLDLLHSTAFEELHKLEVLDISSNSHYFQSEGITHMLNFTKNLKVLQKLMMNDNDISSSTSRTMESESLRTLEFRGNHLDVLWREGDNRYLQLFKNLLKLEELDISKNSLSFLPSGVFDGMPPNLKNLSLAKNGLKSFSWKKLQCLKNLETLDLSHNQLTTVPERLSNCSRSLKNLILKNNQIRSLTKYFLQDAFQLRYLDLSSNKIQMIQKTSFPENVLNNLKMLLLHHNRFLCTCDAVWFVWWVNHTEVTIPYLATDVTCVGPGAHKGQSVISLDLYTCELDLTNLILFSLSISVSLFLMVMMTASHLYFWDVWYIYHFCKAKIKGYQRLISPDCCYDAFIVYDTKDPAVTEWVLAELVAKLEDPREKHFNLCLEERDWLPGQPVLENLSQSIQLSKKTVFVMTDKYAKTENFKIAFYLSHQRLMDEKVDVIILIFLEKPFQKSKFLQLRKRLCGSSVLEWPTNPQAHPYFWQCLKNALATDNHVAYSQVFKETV

SMILES | IC50 (human TLR7) [nM] | IC50 (human TLR8) [nM] | IC50 (human TLR9) [nM]
C#CCN(C)Cc1nnc(-c2ccc3[nH]c(-c4ccc(OC)c(OC)c4)c(C(C)C)c3c2)o1 [Example 123, N-((5-(2-(3,4-dimethoxyphenyl)-3-isopropyl-1H-indol-5-yl)-1,3,4-oxadiazol-2-yl)methyl)-N-methylprop-2-yn-1-amine] | 703 | 213 | > 50000
COc1ccc(-c2[nH]c3ccc(-c4nnc(C5CCNCC5)[nH]4)cc3c2C(C)C)cc1OC [Example 124, 2-(3,4-dimethoxyphenyl)-3-isopropyl-5-(5-(piperidin-4-yl)-4H-1,2,4-triazol-3-yl)-1H-indole] | 182 | 108 | 9200
CC(C)c1c(-c2ccnc3[nH]ncc23)[nH]c2ccc(-c3nnc(C(=O)N4CCCN(C)CC4)o3)cc12 [Example 125, (5-(3-isopropyl-2-(1H-pyrazolo[3,4-b]pyridin-4-yl)-1H-indol-5-yl)-1,3,4-oxadiazol-2-yl)(4-methyl-1,4-diazepan-1-yl)methanone] | 183 | 40 | 776
CC(C)c1c(-c2ccnc3[nH]ncc23)[nH]c2ccc(-c3nnc([C@H]4CCCNC4)o3)cc12 [Example 126, (S)-2-(3-isopropyl-2-(1H-pyrazolo[3,4-b]pyridin-4-yl)-1H-indol-5-yl)-5-(piperidin-3-yl)-1,3,4-oxadiazole] | 45 | 3.4 | 389
CC(C)c1c(-c2ccnc3n[nH]cc23)[nH]c2ccc(-c3nnc(CN4CCCC4)o3)cc12 [Example 128, 2-(3-isopropyl-2-(2H-pyrazolo[3,4-b]pyridin-4-yl)-1H-indol-5-yl)-5-(pyrrolidin-1-ylmethyl)-1,3,4-oxadiazole] | 1100 | 167 | 34100
COc1ccc(-c2[nH]c3ccc(-c4nnc(C5CCN(C(=O)CN(C)C)CC5)[nH]4)cc3c2C(C)C)cc1OC [Example 131, 1-(4-(5-(2-(3,4-dimethoxyphenyl)-3-isopropyl-1H-indol-5-yl)-4H-1,2,4-triazol-3-yl)piperidin-1-yl)-2-(dimethylamino)ethan-1-one] | 29 | 37 | 6480
Cc1cc(-c2[nH]c3ccc(-c4nnc(C(=O)NCCN(C)C)s4)cc3c2C(C)C)ccn1 [Example 133, N-(2-(dimethylamino)ethyl)-5-(3-isopropyl-2-(2-methylpyridin-4-yl)-1H-indol-5-yl)-1,3,4-thiadiazole-2-carboxamide] | 18 | 2 | 441
COc1ccc(-c2[nH]c3ccc(-c4ccc5c(c4)CCNC5)cc3c2C(C)C)cc1OC [Example 136, 6-(2-(3,4-dimethoxyphenyl)-3-isopropyl-1H-indol-5-yl)-1,2,3,4-tetrahydroisoquinoline] | 57 | 38 | 6880
Cc1cc(-c2[nH]c3ccc(-c4nnc(C(=O)NC5CCNC5)s4)cc3c2C(C)C)ccn1 (stereo not drawn) [Example 137, 5-(3-isopropyl-2-(2-methylpyridin-4-yl)-1H-indol-5-yl)-N-(pyrrolidin-3-yl)-1,3,4-thiadiazole-2-carboxamide] | 29 | 2.7 | 705
Cc1cc(-c2[nH]c3ccc(-c4nnc(CN5CCNCC5)o4)cc3c2C(C)C)ccn1 [Example 140, 2-(3-isopropyl-2-(2-methylpyridin-4-yl)-1H-indol-5-yl)-5-(piperazin-1-ylmethyl)-1,3,4-oxadiazole] | 67 | 5.2 | 468
Cc1cc(-c2[nH]c3ccc(-c4nnc(CCN(C)C)o4)cc3c2C(C)C)ccn1 [Example 143, 2-(5-(3-isopropyl-2-(2-methylpyridin-4-yl)-1H-indol-5-yl)-1,3,4-oxadiazol-2-yl)-N,N-dimethylethan-1-amine] | 47 | 0.8 | 1680

Further compounds by falling IC50 (human TLR7), results first:

IC50 (human TLR7) [nM] | IC50 (human TLR8) [nM] | IC50 (human TLR9) [nM] | SMILES
2680 | 44 | 47400 | CNCc1nnc(-c2ccc3[nH]c(-c4ccnc5n[nH]cc45)c(C(C)C)c3c2)o1 [Example 132, 1-(5-(3-isopropyl-2-(2H-pyrazolo[3,4-b]pyridin-4-yl)-1H-indol-5-yl)-1,3,4-oxadiazol-2-yl)-N-methylmethanamine]
225 | 279 | > 50000 | COc1ccc(-c2[nH]c3ccc(-c4nnc(CN5CCC[C@H]5C(N)=O)o4)cc3c2C(C)C)cc1OC [Example 122, (S)-1-((5-(2-(3,4-dimethoxyphenyl)-3-isopropyl-1H-indol-5-yl)-1,3,4-oxadiazol-2-yl)methyl)pyrrolidine-2-carboxamide]
192 | 27 | > 50000 | Cc1cc(-c2[nH]c3ccc(-c4nnc(Cn5ccnc5)o4)cc3c2C(C)C)ccn1 [Example 141, 2-((1H-imidazol-1-yl)methyl)-5-(3-isopropyl-2-(2-methylpyridin-4-yl)-1H-indol-5-yl)-1,3,4-oxadiazole]
60 | 14 | 3460 | COc1ccc(-c2[nH]c3ccc(-c4nnc(C5CCN(CC(=O)N(C)C)CC5)[nH]4)cc3c2C(C)C)cc1OC [Example 129, 2-(4-(5-(2-(3,4-dimethoxyphenyl)-3-isopropyl-1H-indol-5-yl)-4H-1,2,4-triazol-3-yl)piperidin-1-yl)-N,N-dimethylacetamide]
44 | 7.8 | 1380 | Cc1cc(-c2[nH]c3ccc(-c4nnc(C(=O)NC5CCN(C(C)C)CC5)s4)cc3c2C(C)C)ccn1 [Example 135, 5-(3-isopropyl-2-(2-methylpyridin-4-yl)-1H-indol-5-yl)-N-(1-isopropylpiperidin-4-yl)-1,3,4-thiadiazole-2-carboxamide]
28 | 2.8 | 523 | Cc1cc(-c2[nH]c3ccc(-c4nnc([C@@H]5CCNC5)o4)cc3c2C(C)C)ccn1 [Example 139, (R)-2-(3-isopropyl-2-(2-methylpyridin-4-yl)-1H-indol-5-yl)-5-(pyrrolidin-3-yl)-1,3,4-oxadiazole]
27 | 209 | 7000 | CNC(=O)CN1CCC(c2nnc(-c3ccc4[nH]c(-c5ccc(OC)c(OC)c5)c(C(C)C)c4c3)[nH]2)CC1 [Example 130, 2-(4-(5-(2-(3,4-dimethoxyphenyl)-3-isopropyl-1H-indol-5-yl)-4H-1,2,4-triazol-3-yl)piperidin-1-yl)-N-methylacetamide]
26 | 1.4 | 542 | Cc1cc(-c2[nH]c3ccc(-c4nnc(CC5CCCCN5)o4)cc3c2C(C)C)ccn1 (stereo not drawn) [Example 138, 2-(3-isopropyl-2-(2-methylpyridin-4-yl)-1H-indol-5-yl)-5-(piperidin-2-ylmethyl)-1,3,4-oxadiazole]
25 | 1.7 | 621 | CNCCc1nnc(-c2ccc3[nH]c(-c4ccnc(C)c4)c(C(C)C)c3c2)o1 [Example 142, 2-(5-(3-isopropyl-2-(2-methylpyridin-4-yl)-1H-indol-5-yl)-1,3,4-oxadiazol-2-yl)-N-methylethan-1-amine]
21 | 6.5 | 1580 | COc1ccc(-c2[nH]c3ccc(-c4nc(C(=O)N5CC6CNCC6C5)co4)cc3c2C(C)C)cc1OC (stereo not drawn) [Example 127, (2-(2-(3,4-dimethoxyphenyl)-3-isopropyl-1H-indol-5-yl)oxazol-4-yl)(hexahydropyrrolo[3,4-c]pyrrol-2(1H)-yl)methanone]
